Consider 52 compounds from patent US20080090805A1, “CB-1 MODULATING COMPOUNDS AND THEIR USE” (ACADIA PHARMACEUTICALS INC., priority 2005, published 2008).

A short description of series [1]: in vitro. To be noted: human, microsomes, pH 7.4.
Series [2] is described as follows: in vitro. The note with it: rat, microsomes, pH 7.4.
The nature of series [3]: in vitro. The note with it: mouse, microsomes, pH 7.4.
Series [4] relates to fasted Sprague-Dawley rats. The experiment in a line: Acute feeding study. The class given is in vivo. To be noted: Table 3 feeding data. On the procedure:
Male, Sprague-Dawley rats (90-120 g) served as subjects for these studies. Rats were fasted for a period of 16 hrs (water was always available). After the fasting period, test compounds were administered either intraperitoneally (ip) or orally (po). Immediately following compound administration, the rats were returned to their home cage. Following 30 min after compound administration, the rats were removed from their home cages and placed individually into clean cages with a pre-measured amount of food. Food weights were obtained (to the nearest 0.1 g) at various time points. Food consumption was monitored for a period of up to 2 hrs (i.e., 2.5 hr after test compound administration).

The next series concerns the target CB1 (mutant) (Homo sapiens, UniProt P21554). The experiment in a line: R-SAT functional receptor assay, CB1 (mutant, truncated after amino acid 417). The class given is cell-based. The note with it: Table 1, CB1 (mutant).
The target in a further series is CB1 (wild-type) (Homo sapiens, UniProt P21554). The experiment in a line: R-SAT functional receptor assay, CB1 (wild-type). The format is cell-based.
Another series deals with hERG (Homo sapiens, UniProt Q12809). The experiment in a line: HERG safety study (whole cell recordings, CHO cells). The note with it: CHO cells stably expressing hERG channels, pH 7.4.
Chain of hERG (Q12809 whole entry): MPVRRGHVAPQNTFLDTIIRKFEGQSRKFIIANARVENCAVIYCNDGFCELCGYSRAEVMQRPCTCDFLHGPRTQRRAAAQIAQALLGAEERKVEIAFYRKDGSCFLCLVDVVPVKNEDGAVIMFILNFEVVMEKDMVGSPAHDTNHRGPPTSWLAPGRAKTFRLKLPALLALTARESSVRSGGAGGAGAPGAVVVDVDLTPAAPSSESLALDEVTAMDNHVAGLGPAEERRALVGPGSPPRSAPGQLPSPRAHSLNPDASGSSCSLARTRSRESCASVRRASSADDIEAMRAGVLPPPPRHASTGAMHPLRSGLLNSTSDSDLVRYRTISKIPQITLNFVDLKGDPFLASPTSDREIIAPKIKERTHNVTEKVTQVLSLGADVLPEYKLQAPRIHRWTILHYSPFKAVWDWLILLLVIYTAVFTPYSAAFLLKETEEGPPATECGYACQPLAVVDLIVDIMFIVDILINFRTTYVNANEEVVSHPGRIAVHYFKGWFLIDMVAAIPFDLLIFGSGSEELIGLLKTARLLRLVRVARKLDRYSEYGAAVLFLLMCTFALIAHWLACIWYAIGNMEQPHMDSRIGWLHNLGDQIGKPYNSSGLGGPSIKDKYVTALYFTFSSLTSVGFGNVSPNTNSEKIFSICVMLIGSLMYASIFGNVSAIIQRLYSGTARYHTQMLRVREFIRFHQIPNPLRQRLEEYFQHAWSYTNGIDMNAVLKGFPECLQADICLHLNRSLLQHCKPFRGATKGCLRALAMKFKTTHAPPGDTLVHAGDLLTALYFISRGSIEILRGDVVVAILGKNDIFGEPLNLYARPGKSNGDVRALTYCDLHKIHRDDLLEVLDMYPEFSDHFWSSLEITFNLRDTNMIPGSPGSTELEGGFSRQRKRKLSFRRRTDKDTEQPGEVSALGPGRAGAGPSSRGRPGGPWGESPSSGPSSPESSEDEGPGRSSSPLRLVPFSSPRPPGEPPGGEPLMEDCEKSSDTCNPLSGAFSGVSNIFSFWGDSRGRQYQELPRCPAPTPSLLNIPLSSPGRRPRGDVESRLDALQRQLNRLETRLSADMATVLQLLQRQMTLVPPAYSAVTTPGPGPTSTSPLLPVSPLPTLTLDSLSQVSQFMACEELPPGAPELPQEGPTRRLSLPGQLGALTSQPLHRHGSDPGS

Chain of CB1 (mutant) (P21554 1-417, change not shown): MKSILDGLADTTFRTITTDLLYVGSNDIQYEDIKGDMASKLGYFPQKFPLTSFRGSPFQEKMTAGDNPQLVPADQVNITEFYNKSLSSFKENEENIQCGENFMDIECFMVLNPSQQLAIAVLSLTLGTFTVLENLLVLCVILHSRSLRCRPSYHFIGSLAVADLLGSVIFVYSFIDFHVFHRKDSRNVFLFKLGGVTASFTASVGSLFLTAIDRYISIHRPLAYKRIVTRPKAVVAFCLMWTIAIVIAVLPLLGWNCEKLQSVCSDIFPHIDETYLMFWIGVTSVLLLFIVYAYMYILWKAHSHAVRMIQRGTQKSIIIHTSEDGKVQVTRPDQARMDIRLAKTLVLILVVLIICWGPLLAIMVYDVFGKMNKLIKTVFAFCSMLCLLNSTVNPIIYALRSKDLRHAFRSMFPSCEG
Chain of CB1 (wild-type) (P21554 whole entry): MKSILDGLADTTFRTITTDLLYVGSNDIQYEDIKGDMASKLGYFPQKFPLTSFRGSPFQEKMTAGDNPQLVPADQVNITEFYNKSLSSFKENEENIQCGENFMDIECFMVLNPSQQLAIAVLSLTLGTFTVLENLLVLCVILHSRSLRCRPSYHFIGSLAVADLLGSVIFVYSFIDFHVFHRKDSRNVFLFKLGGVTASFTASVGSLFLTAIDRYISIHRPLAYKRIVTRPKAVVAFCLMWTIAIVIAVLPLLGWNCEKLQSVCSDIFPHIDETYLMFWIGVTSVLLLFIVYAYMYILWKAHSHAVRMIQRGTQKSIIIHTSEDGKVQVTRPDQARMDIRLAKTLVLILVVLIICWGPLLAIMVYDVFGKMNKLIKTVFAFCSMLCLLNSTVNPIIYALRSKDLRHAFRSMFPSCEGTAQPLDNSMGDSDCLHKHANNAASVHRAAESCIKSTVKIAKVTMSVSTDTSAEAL

Regarding `CC(C)CNC(=O)c1ccc2c(c1)N=C(c1ccc(Cl)cc1)c1ccccc1S2` [drawing 1759], the intrinsic metabolic clearance (microsomal CLint) at 1 μM in the series “in vitro [1]” was determined as 12 µL/min/mg; in “in vitro [2]”, 56 µL/min/mg; in “in vitro [3]” it was 83 µL/min/mg.

In series [4], `O=C(NCc1ccc(F)cc1)c1ccc2c(c1)N=C(c1ccc(Cl)cc1)c1ccccc1S2` [drawing 539] came in with a Feeding ID50 of 8 mg/kg.

On to `CC(CNC(=O)c1ccc2c(c1)N=C(c1ccc(F)cc1)c1ccccc1S2)c1ccccc1` (centres unmarked) [drawing 1797], for which the intrinsic clearance (microsomal CLint) at 1 μM in the series “in vitro [1]” is 108 µL/min/mg; in “in vitro [2]”, 532 µL/min/mg. Regarding `O=C(NCc1cccnc1)c1ccc2c(c1)N=C(c1ccc(Cl)c(Cl)c1)c1ccccc1S2` [drawing 541], the Feeding ID50 in series [4] came out at 14 mg/kg.

`CCOC(=O)N1CCC(NC(=O)c2ccc3c(c2)N=C(Cl)c2ccccc2S3)CC1` [Example 14, 4-[(11-chloro-dibenzo[b,f][1,4]thiazepine-8-carbonyl)-amino]-piperidine-1-carboxylic acid ethyl ester]: the IC50 is 316 nM at CB1 (mutant) (inhibition of constitutive receptor response, read-out: pIC50 (converted)) and 126 nM against CB1 (wild-type) (Table 1, inhibition of constitutive receptor response). The “% Inhibition” value on CB1 (mutant) (relative to the ligand SR141716 (100%)) is reported as 94%. The Emax at CB1 (wild-type) (Table 1, relative to the ligand SR141716 (100%), read-out: % Inhibition) came to 88%. In the case of `O=C(NN1CCCCC1)c1ccc2c(c1)N=C(c1ccc(Cl)s1)c1ccccc1S2` [drawing 1660], the figures for the microsomal CLint at 1 μM in the series “in vitro [1]”, in the series “in vitro [2]” and in the series “in vitro [3]” were 32 µL/min/mg, 148 µL/min/mg and 227 µL/min/mg, respectively. On to `C[C@@H]1CCC[C@H](C)N1NC(=O)c1ccc2c(c1)N=C(c1cccc(Cl)c1)c1ccccc1S2` [drawing 1720], for which the values for the intrinsic clearance (microsomal CLint) at 1 μM in “in vitro [1]”, in “in vitro [2]” and in “in vitro [3]” were 390 µL/min/mg, 254 µL/min/mg and 684 µL/min/mg, respectively.

Take `CCCCNC(=O)c1ccc2c(c1)N=C(c1ccc(Cl)cc1)c1ccccc1[S+]2[O-]` (centres unmarked) [drawing 1840]: the inhibition at 1 µM at hERG was determined as 52%. On to `COc1cccc(C2=Nc3cc(C(=O)NCCCC(F)(F)F)ccc3Sc3ccccc32)n1` [drawing 1823], for which 1 µM produced 35% inhibition at hERG. In the case of `CC(C)CCNC(=O)c1ccc2c(c1)N=C(c1cccc(Cl)c1)c1ccccc1S2` [drawing 1822], 1 µM produced 59% inhibition against hERG. As to `CC(C)CCNC(=O)c1ccc2c(c1)N=C(c1ccc(F)cc1)c1ccccc1S2` [drawing 1771], the microsomal CLint at 1 μM in “in vitro [1]” worked out at 52 µL/min/mg; in the series “in vitro [2]”, 214 µL/min/mg. The compound `CC(C)CNC(=O)c1ccc2c(c1)N=C(c1ccc(Cl)cc1F)c1ccccc1S2` [drawing 542] gave a Feeding ID50 in series [4] of 5.8 mg/kg. In turn, `CC(C)CNC(=O)c1ccc2c(c1)N=C(c1ccc(Cl)s1)c1ccccc1S2` [drawing 544] showed a Feeding ID50 in series [4] of 7.9 mg/kg. Consider `CC(C)CNC(=O)c1ccc2c(c1)N=C(c1ccc(Cl)s1)c1ccccc1S2` [drawing 1813], for which testing at 1 µM against hERG gave an inhibition of 26%. With `Cc1ccc(CNC(=O)c2ccc3c(c2)N=C(c2ccc(Cl)s2)c2ccccc2S3)o1` [drawing 1836], the inhibition at 1 µM on hERG is 13%. For `O=C(NCc1cccc(Cl)c1)c1ccc2c(c1)N=C(N1CCCCC1)c1ccccc1S2(=O)=O` [drawing 1798], the microsomal CLint at 1 μM in “in vitro [1]” was found to be 77 µL/min/mg; in the series “in vitro [2]”, 217 µL/min/mg. Take `O=C(NCc1ccccc1Cl)c1ccc2c(c1)N=C(c1ccc(Cl)cc1)c1ccccc1S2` [drawing 1782]: the microsomal CLint at 1 μM in the series “in vitro [1]” was determined as 17 µL/min/mg; in “in vitro [2]”, 33 µL/min/mg. Regarding `O=C(NC1CCCCC1)c1ccc2c(c1)N=C(c1cccc(Cl)c1)c1ccccc1S2` [drawing 1834], at hERG, the inhibition at 1 µM came out at 44%. `O=C(NN1CCCCC1)c1ccc2c(c1)N=C(C1CCCCC1)c1ccccc1S2` [drawing 1828]: on hERG, the inhibition at 1 µM worked out at 29%. Still for that read-out and setting: the same measure for `O=C(NN1CCCCCC1)c1ccc2c(c1)N=C(c1cccc(Cl)c1)c1ccccc1S2` [drawing 1825]: 97%. Consider `O=C(NN1CCCCCC1)c1ccc2c(c1)N=C(c1cccc(F)c1)c1ccccc1S2` [drawing 1693], for which the values for the microsomal CLint at 1 μM in the series “in vitro [1]”, in the series “in vitro [2]” and in “in vitro [3]” were 84 µL/min/mg, 241 µL/min/mg and 160 µL/min/mg, respectively. As to `O=C(NCCCC(F)(F)F)c1ccc2c(c1)N=C(c1cccc(F)c1)c1ccccc1S2` [drawing 1817], 1 µM produced 45% inhibition on hERG. With `O=C(NN1CCCCCC1)c1ccc2c(c1)N=C(c1ccc(Cl)s1)c1ccccc1S2` [drawing 1816], the inhibition at 1 µM against hERG was 30%. For the compound `O=C(NCCc1ccccc1)c1ccc2c(c1)N=C(c1cccc(Cl)c1)c1ccccc1S2` [drawing 1763], the values for the intrinsic clearance (microsomal CLint) at 1 μM in the series “in vitro [1]” and in “in vitro [2]” were 53 µL/min/mg and 110 µL/min/mg, respectively. With `CC(C)CNC(=O)c1ccc2c(c1)N=C(c1ccc(Br)cc1)c1ccccc1S2` [drawing 1791], the microsomal CLint at 1 μM in the series “in vitro [1]” stood at 19 µL/min/mg; in “in vitro [2]”, 115 µL/min/mg.

Consider `O=C(NC1CCC(F)(F)CC1)c1ccc2c(c1)N=C(c1cccc(Cl)c1)c1ccccc1S2` [drawing 1715], for which the microsomal CLint at 1 μM is 3 µL/min/mg in the series “in vitro [1]” and 81 µL/min/mg in “in vitro [2]”.

On to `O=C(NN1CCCCC1)c1ccc2c(c1)N=C(C1CCCCC1)c1ccccc1S2` [drawing 537], for which the Feeding ID50 in series [4] came to 12 mg/kg. In turn, `O=C(NCCCC(F)(F)F)c1ccc2c(c1)N=C(c1ccccn1)c1ccccc1S2` [drawing 1832] gave an inhibition at 1 µM against hERG of 28%. Consider `CCCCNC(=O)c1ccc2c(c1)N=C(c1ccc(Cl)s1)c1ccccc1S2` [drawing 1824], for which the inhibition at 1 µM on hERG was 14%. `CCN(CCNC(=O)c1ccc2c(c1)N=C(c1cccc(Cl)c1)c1ccccc1S2)c1ccccc1` [drawing 1751]: the results for the microsomal CLint at 1 μM in the series “in vitro [1]” and in the series “in vitro [2]” were 157 µL/min/mg and 368 µL/min/mg, respectively.

`CC(C)CNC(=O)c1ccc2c(c1)N=C(c1cccc(Cl)c1)c1ccccc1S2` [drawing 1819]: at hERG, the inhibition at 1 µM amounted to 93%.

Regarding `CCCCNC(=O)c1ccc2c(c1)N=C(c1ccc(Cl)cc1)c1ccccc1S2` [drawing 536], the Feeding ID50 in series [4] is 2.4 mg/kg. The compound `CC(C)CNC(=O)c1ccc2c(c1)N=C(c1ccc(Cl)cc1)c1ccc(F)cc1S2` [drawing 1811] returned an inhibition at 1 µM against hERG of 58%. In series [4], `O=C(NN1CCCCC1)c1ccc2c(c1)N=C(c1ccc(Cl)cc1)c1ccccc1S2` [drawing 543] displayed a Feeding ID50 of 2.4 mg/kg.

In the case of `COc1cccc(C2=Nc3cc(C(=O)NC4CCC(F)(F)CC4)ccc3Sc3ccccc32)n1` [drawing 1673], the microsomal CLint at 1 μM came out at 25 µL/min/mg in “in vitro [1]” and 158 µL/min/mg in the series “in vitro [2]”. For `CCCNC(=O)c1ccc2c(c1)N=C(c1ccc(Cl)cc1)c1ccccc1S2` [drawing 1826], the inhibition at 1 µM on hERG is 55%.

`CCCCNC(=O)c1ccc2c(c1)N=C(c1ccc(Cl)cn1)c1ccccc1S2` [drawing 1839]: at hERG, the inhibition at 1 µM came to 67%. With `CCCCNC(=O)c1ccc2c(c1)N=C(c1ccc(F)cn1)c1ccccc1S2` [drawing 545], the Feeding ID50 in series [4] was found to be 6 mg/kg. `CCCCNC(=O)c1ccc2c(c1)N=C(c1ccc(Cl)cc1)c1ccccc1S2` [drawing 1812]: 1 µM produced 49% inhibition against hERG. As to `O=C(NCCCC(F)(F)F)c1ccc2c(c1)N=C(c1ccc(Cl)s1)c1ccccc1S2` [drawing 1810], on hERG, at 1 µM the inhibition was 14%.

Regarding `CC(C)CCNC(=O)c1ccc2c(c1)N=C(c1cccc(F)c1)c1ccccc1S2` [drawing 1713], the results for the intrinsic clearance (microsomal CLint) at 1 μM in “in vitro [1]”, in the series “in vitro [2]” and in the series “in vitro [3]” were 46 µL/min/mg, 163 µL/min/mg and 202 µL/min/mg, respectively.

With `O=C(NN1CCCCC1)c1ccc2c(c1)N=C(c1ccc(F)cc1)c1ccccc1S2` [drawing 1685], the microsomal CLint at 1 μM in the series “in vitro [1]” is 61 µL/min/mg; in the series “in vitro [2]”, 96 µL/min/mg. In turn, `CCCCNC(=O)c1ccc2c(c1)N=C(c1ccc(Cl)cn1)c1cc(F)ccc1S2` [drawing 1841] had an inhibition at 1 µM at hERG of 52%.

As to `O=C(NCCCc1ccccc1)c1ccc2c(c1)N=C(c1ccc(Cl)cc1)c1ccccc1S2` [drawing 1680], the intrinsic clearance (microsomal CLint) at 1 μM in “in vitro [1]” is 73 µL/min/mg; in “in vitro [2]”, 131 µL/min/mg. `O=C(NC1CCCCC1)c1ccc2c(c1)N=C(c1ccc(F)cc1)c1ccccc1S2` [drawing 1814] had an inhibition at 1 µM at hERG of 45%.

Take `O=C(NCc1ccco1)c1ccc2c(c1)N=C(c1cccc(F)c1)c1ccccc1S2` [drawing 1754]: the microsomal CLint at 1 μM in the series “in vitro [1]” worked out at 68 µL/min/mg; in “in vitro [2]” it was 140 µL/min/mg; in “in vitro [3]” it was 197 µL/min/mg. Consider `CCCCNC(=O)c1ccc2c(c1)N=C(c1ccc(Cl)cc1)c1ccc(F)cc1S2` [drawing 1821], for which, on hERG, the inhibition at 1 µM stood at 34%. Turning to `O=C(NCc1ccccc1Cl)c1ccc2c(c1)N=C(c1ccccc1F)c1ccccc1S2` [drawing 1794], the microsomal CLint at 1 μM was determined as 59 µL/min/mg in the series “in vitro [1]” and 181 µL/min/mg in “in vitro [2]”. `CC(C)CNC(=O)c1ccc2c(c1)N=C(c1ccc(Cl)c(Cl)c1)c1ccccc1S2` [drawing 540]: in series [4], the Feeding ID50 was found to be 8.4 mg/kg.

`CC(C)CCNC(=O)c1ccc2c(c1)N=C(c1cccc(Cl)c1)c1ccccc1S2` [drawing 538]: in series [4], the Feeding ID50 came to 5.3 mg/kg. Turning to `O=C(NN1CCCCC1)c1ccc2c(c1)N=C(c1ccc(Cl)cc1)c1ccccc1S2` [drawing 1831], at hERG, at 1 µM the inhibition was 92%. In the case of `O=C(NCc1ccc(F)cc1)c1ccc2c(c1)N=C(c1cccc(Cl)c1)c1ccccc1S2` [drawing 1662], the microsomal CLint at 1 μM in “in vitro [1]” is 27 µL/min/mg; in “in vitro [2]” it was 76 µL/min/mg.
